Data on 25 molecules can be found in patent EP0200345A2, “Anti-allergic or anti-inflammatory substituted (hetero)-aralkylamino-ortho-phenols” (BEECHAM GROUP PLC, priority 1985, dated 1986).

Where a name gives a salt, the structure may show the parent alone.

The term inhibition denotes the change of the read-out against control, counted positive when it falls.

The target in one test is T1, RBL-1 5-lipoxygenase (Rattus norvegicus, UniProt P12527).
T1 construct: 5-Lipoxygenase enzyme was prepared as a 10,000g supernatant from RBL-1 cells; endogenous in cells; host or cells: RBL-1 cells (10,000g supernatant of the homogenate)
T1 sequence (P12527 1-673): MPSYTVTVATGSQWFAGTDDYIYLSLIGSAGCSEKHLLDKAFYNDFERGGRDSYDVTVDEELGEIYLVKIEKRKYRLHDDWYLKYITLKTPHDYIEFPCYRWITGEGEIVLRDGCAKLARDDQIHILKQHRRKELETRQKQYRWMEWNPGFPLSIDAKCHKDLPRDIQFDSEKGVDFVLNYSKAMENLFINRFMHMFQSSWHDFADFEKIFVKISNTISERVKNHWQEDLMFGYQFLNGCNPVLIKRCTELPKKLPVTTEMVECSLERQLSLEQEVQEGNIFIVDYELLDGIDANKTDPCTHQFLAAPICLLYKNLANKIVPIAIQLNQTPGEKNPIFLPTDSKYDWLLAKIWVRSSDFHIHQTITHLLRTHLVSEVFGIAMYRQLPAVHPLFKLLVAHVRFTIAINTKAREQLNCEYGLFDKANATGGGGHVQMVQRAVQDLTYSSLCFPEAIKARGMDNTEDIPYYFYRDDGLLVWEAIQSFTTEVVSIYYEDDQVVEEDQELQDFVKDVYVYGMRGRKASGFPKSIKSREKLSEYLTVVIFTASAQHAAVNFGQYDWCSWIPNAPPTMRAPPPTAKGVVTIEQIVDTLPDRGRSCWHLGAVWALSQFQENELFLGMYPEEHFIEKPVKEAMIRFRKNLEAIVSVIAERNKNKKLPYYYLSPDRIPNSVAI
Briefly: RBL-1 5-lipoxygenase screen. The class given is biochemical. The conditions noted are these: compound concentration 0.05 µM; 10,000g supernatant from RBL-1 cells; formation of 5-HETE and 5,12-diHETE. Here is the method:
1) RBL-1 5-LIPOXYGENASE SCREEN
5-Lipoxygenase enzyme was prepared as a 10,000g supernatant from RBL-1 cells by the method of Jakschik (Jakschik, B.A., F.F. Sun, L.M. Lee, and M.M. Steinhoff, 1980, Biochem. Biophys. Res. Comm. 95, 103). The 10,000g supernatant was diluted with homogenization buffer to the equivaleni of 1.5 -2.5 x 10^7 cells. ml.-' and made 2mM with respect to CaCl2. Aliquots of 0.5ml were then dispensed into tubes, and incubated at 29°C with 5ul ethanol or compound in ethanol at the desired concentration for 2min. Then [1-"C] arachidonic acid was added in buffer to give a final concentration of 6.3uM and 0.2uCi per incubation, and the reaction continued at 29°C for 2 min. The reaction was terminated by adding 1ml of acetone and cooling on ice, 0.5ml of ice-cold saline and 100ul of 2N formic acid were added, and the mixture was extracted with 2 ^x 2ml of chloroform. The extract was stored under N, at -20°C until analysis by chromatography. Activity was measured as the percentage of total radioactivity found in 5-HETE and 5,12-diHETE, and inhibition calculated as the decrease information of the sum of these two species in compound-treated incubates relative to control incubations.
For `Cc1ccc(O)c(NCc2ccc(C#N)cc2)c1` [Example 5, 2-[(4-Cyanophenyl)methyl]amino-4-methylphenol], 0.05 µM produced 42.8% inhibition.
On the same count and under the same terms, for `Cc1ccc(CNc2cc(C)ccc2O)cc1` [Example 6, 2-[(4-Methylphenyl)methyl]amino-4-methylphenol] the value was 93.4%; for `COc1ccc(CNc2cc(C)ccc2O)cc1` [Example 7, 2-[(4-methoxyphenyl)methyl]amino-4-methylphenol], 61.7%.
Same read-out and setting: the same measure for `Cc1ccc(O)c(NCc2ccc(Cl)cc2)c1` [Example 8, 2-[(4-chlorophenyl)methyl]amino-4-methylphenol]: 91.4%; for `Cc1ccc(O)c(NCc2ccco2)c1` [Example 9, 2-[(2-furyl)methyl]amino-4-methylphenol]: 31.4%; for `Cc1ccc(O)c(NCc2cccc(C(F)(F)F)c2)c1` [Example 10, 2-[(3-trifluoromethylphenyl)methyl]amino-4-methylphenol]: 89.5%.
The same measure, in the same setting: for `Cc1ccc(O)c(NCc2ccc(F)cc2)c1` [Example 11, 2-[(4-fluorophenyl)methyl]amino-4-methyl phenol] the value was 93.2%; for `Cc1ccc(O)c(NCc2ccc(Cl)c(Cl)c2)c1` [Example 12, 2-[(3,4 dichlorophenyl)methyl]amino-4-methyl phenol], 73.7%.
`Cc1ccc(O)c(NCc2cccs2)c1` [Example 13, 2-[(thien-2-yl)methyl]amino-4-methyl phenol] yielded an inhibition at 0.05 µM of 49.7%.
The same measure, in the same setting: the same measure for `Cc1ccc(O)c(NCc2ccc(Br)cc2)c1` [Example 14, 2-[(4-bromophenyl)methyl]amino-4-methyl phenol]: 64.2%.
`Cc1ccc(O)c(NCc2cccc(Cl)c2)c1` [Example 15]: the inhibition at 0.05 µM came out at 85%.
`Cc1ccc(O)c(NCc2cccc(F)c2)c1` [Example 16, 2-[(3-fluorophenyl)methyl]amino-4-methyl phenol] registered an inhibition at 0.05 µM of 76%.
Same read-out and setting: the same measure for `Cc1ccc(O)c(NC(C)c2ccccc2)c1` (stereo not drawn) [Example 17, 2 -(α -Methylbenzyl)amino -4 -methylphenol]: 34%; for `CC(C)c1ccc(O)c(NCc2ccccc2)c1` [Example 20, 2-phenylmethylamino-4-iso-propylphenol]: 77%; for `CC(C)(C)c1ccc(O)c(NCc2ccccc2)c1` [Example 21, 2-phenylmethylamino-4-tert-butylphenol]: 35%.
Turning to `Oc1ccc(Cl)cc1NCc1ccccc1` [Example 22, 2-phenylmethylamino-4-chlorophenol], the inhibition at 0.05 µM came out at 81%.
For `CCc1ccc(O)c(NCc2ccccc2)c1` [Example 24, 2-phenylmethylamino-4-ethylphenol], testing at 0.05 µM gave an inhibition of 20%.
On the same count and under the same terms, the same measure for `Cc1ccc(O)c(NCc2ccc([N+](=O)[O-])cc2)c1` [Example 25]: 80%; for `Cc1ccc(O)c(NCc2ccc(C(C)C)cc2)c1` [Example 26]: 80%; for `Cc1ccc(O)c(NCc2ccc(O)cc2)c1` [Example 27, 2-[(4-hydroxyphenyl)methyl]amino-4-methylphenol]: 12%.
On the same count and under the same terms, the same measure for `Cc1ccc(O)c(NCCc2ccccc2)c1` [Example 28, 2-phenylethylamino-4-methylphenol]: 86%.

Staying with this test, now noted: compound concentration 1 µM; 10,000g supernatant from RBL-1 cells; formation of 5-HETE and 5,12-diHETE.
`O=C(c1ccccc1)c1cc(NCc2ccccc2)c(O)cc1O` [Example 29, 4-Benzoyl-6-(Phenylmethylamino)resorcinol hydrochloride] returned an inhibition at 1 µM of 94%.
The same measure, in the same setting: the same measure for `Cc1ccc(O)c(N(Cc2ccccc2)Cc2ccccc2)c1` [Example 30, 2-Dibenzylamino-4-methylphenol]: 91%.

Still in this test, the particulars now being: compound concentration 20 µM; 10,000g supernatant from RBL-1 cells; formation of 5-HETE and 5,12-diHETE.
For the molecule `Cc1ccc(O)c(NCc2ccccc2)c1` [Example 3, 2-Phenylmethyfamino-4-methylphenol], the inhibition at 20 µM is 95.4%.
`Oc1ccc(Br)cc1NCc1ccccc1` [Example 23, 2-phenylmethylamino-4-bromophenol] showed an inhibition at 20 µM of 98%.
